Data: patent US11628172B2, “Methods of treating chronic lymphocytic leukemia using 2-(2,6-dioxopiperidin-3-yl)-4-((2-fluoro-4-((3-morpholinoazetidin-1-yl)methyl)benzyl)amino)isoindoline-1,3-dione” (Celgene Corporation, priority 2019, dated 2023)
Like-named read-outs stand apart in the source and are kept apart here.

Columns and labels:
PGA1 CLL cell line = experiment: Cell proliferation and viability assay (384-well flow cytometry, Annexin V/DRAQ7), PGA1; assay type: cell-based; settings: 120 hours
Procedure: The following are examples of cell-based assays that can be used to determine the anti-proliferative activity and apoptotic effect of compounds described herein using exemplary CLL cell lines (Table 3). The in vitro growth inhibitory activity of Compound 1 described herein was evaluated using a 384-well flow cytometry assay.
The cell lines were plated under the conditions shown in Table 3 in 384-well flat bottom plates and incubated with increasing concentrations of compound ranging from 0.00015 to 10 μM or dimethyl sulfoxide (DMSO) control. The final concentration of DMSO was 0.1% (v/v). Following the addition of Compound 1 or DMSO and incubation for 120 hours, cell number and cell death were analyzed by flow cytometry (Attune®, Thermo Fisher) using Annexin V and the live-cell impermeant DNA dye, DRAQ7. […]
Flow cytometry data analysis was then performed using the Flow Jo_v10 software to determine the number of viable cells (Annexin V and DRAQ7 double negative staining cells) and percentage of apoptotic cells (Annexin V positive cells) for each condition. […] The IC50 (50% inhibitory concentration) and Emax (maximum efficacy achieved) values were then calculated by performing nonlinear regression curve fitting using log (inhibitor) vs. normalized response—variable slope analysis on GraphPad Prism 7.03. […]

[1] = tested on: primary CLL cells from patient-derived blood; experiment: Cell proliferation and viability assay for B-cell CLL patient cells (ex vivo co-culture with CD154-expressing fibroblasts); assay type: cell-based, human; parameters: AUC: unit not given here; settings: for Emax / IC50: Homo sapiens, CLL cell; for Emax: read-out: Emax (percentage of tumor cells remaining); for AUC: viable cell counts
Procedure: The following are examples of cell-based assays that can be used to determine the anti-proliferative activity and apoptosis effect of compounds described herein using exemplary CLL patient cells. The effect of Compound 1 on the viability and apoptosis of CLL B cells was assessed utilizing an ex vivo model.
CLL is characterized by accumulation of clonal CD5^+CD19^+ lymphocytes resistant to apoptosis. The effect of Compound 1 on the viability and apoptosis of CLL B cells was assessed utilizing an ex vivo model where primary CLL cells from patient-derived blood were stimulated with 10% fetal bovine serum (FBS), 5 ng/mL recombinant human interleukin-4 (rh IL-4), 10 ng/mL recombinant human interleukin-10 (rh IL-10) and co-cultured with fibroblast expressing surface CD154 (CD40L). The percentage of cells staining with Annexin V and/or DRAQ-7 was measured by flow cytometry assay after 3, 6 or 10 days of incubation with vehicle control or with increasing concentrations of Compound 1 ranging from 0.001 to 1 μM. Peripheral blood mononuclear cells (PBMCs) from CLL patients (Table 5) containing 70%-95% of CD5^+CD19^+ tumor cells were cultured on a monolayer of CD154-expressing fibroblasts in 24-well plates at a density of patient cells of 0.8×10^6 cells/well in RPMI 1640 medium supplemented with 10% FBS, 5 ng/mL rh IL-4 and 10 ng/mL rh IL-10 and were treated with vehicle control (0.1% DMSO) or increasing concentrations of Compound 1 ranging from 0.001 to 1 μM. After treatment, flow cytometric analysis was used to determine the number of cells that were viable or apoptotic.
After 3, 6 or 10 days of compound treatment, cells were incubated with Annexin V to capture the externalization of phosphatidylserine as a result of disturbed lipid asymmetry in the plasma membrane of cells, a well-characterized event in apoptosis, and the vital far-red fluorescent DNA dye DRAQ-7, that only stains the nuclei of dead and permeabilized cells, and analyzed by flow cytometry (Attune®, Thermo Fisher). Analysis was then performed to determine the percentage of viable live cells (Annexin V and DRAQ-7 double negative staining cells) using FlowJo_V10 and graphed with GraphPad Prism 7.03 software. The live cell count for every condition was normalized to the DMSO control (considered as 100% viable cells) to calculate the percentage of viable cells remaining after treatment. The IC50 (50% inhibitory concentration) and Emax (maximum efficacy eliminating tumor cells achieved) values were then calculated by performing nonlinear regression curve fitting using log(inhibitor) vs. normalized response—variable slope analysis on GraphPad Prism 7.03. Area under the curve (AUC) value of the viable cell counts over time was calculated by performing area under curve analysis on GraphPad Prism 7.03 (Table 6).

[2] = Pt10, ex vivo CLL patient cells

In the case of `O=C1CC[C@H](N2C(=O)c3cccc(NCc4ccc(CN5CC(N6CCOCC6)C5)cc4F)c3C2=O)C(=O)N1` [Compound 1, (S)-2-(2,6-dioxopiperidin-3-yl)-4-((2-fluoro-4-((3-morpholinoazetidin-1-yl)methyl)benzyl)amino)isoindoline-1,3-dione], the “% Viable Cells Emax (percentage of tumor cells remaining)” value (PGA1 CLL cell line) is reported as 69.21%, the Emax ([1]; Pt1, ex vivo CLL patient cells) is reported as 4.62% and the IC50 ([1]; Pt2, ex vivo CLL patient cells, 0.001 to 1 μM, viable cells normalized to DMSO, read-out: IC50) is reported as 1.05 nM. For the same compound, the Emax ([1]; Pt2, ex vivo CLL patient cells) was 30.6%, the IC50 ([1]; Pt3, ex vivo CLL patient cells, 0.001 to 1 μM, viable cells normalized to DMSO, read-out: IC50) was 0.723 nM and the Emax ([1]; Pt3, ex vivo CLL patient cells) was 13%. The Emax ([1]; Pt4, ex vivo CLL patient cells) was 6.5%, the IC50 ([1]; Pt5, ex vivo CLL patient cells, 0.001 to 1 μM, viable cells normalized to DMSO, read-out: IC50) was 0.305 nM and the Emax ([1]; Pt5, ex vivo CLL patient cells) was 22.8%. It also gave an IC50 ([1]; Pt6, ex vivo CLL patient cells, 0.001 to 1 μM, viable cells normalized to DMSO, read-out: IC50) of 2.75 nM, an Emax ([1]; Pt6, ex vivo CLL patient cells) of 27.4% and an IC50 ([1]; Pt7, ex vivo CLL patient cells, 0.001 to 1 μM, viable cells normalized to DMSO, read-out: IC50) of 0.036 nM. For the same compound, the Emax ([1]; Pt7, ex vivo CLL patient cells) was 5.87%, the IC50 ([1]; Pt8, ex vivo CLL patient cells, 0.001 to 1 μM, viable cells normalized to DMSO, read-out: IC50) was 0.209 nM and the Emax ([1]; Pt8, ex vivo CLL patient cells) was 4.82%. For the same compound, the IC50 ([1]; Pt9, ex vivo CLL patient cells, 0.001 to 1 μM, viable cells normalized to DMSO, read-out: IC50) was 0.0652 nM, the Emax ([1]; Pt9, ex vivo CLL patient cells) was 4.14% and the IC50 ([1]; Pt10, ex vivo CLL patient cells, 0.001 to 1 μM, viable cells normalized to DMSO, read-out: IC50) was 0.129 nM. It also gave an Emax [1, 2] of 10.2%, an IC50 ([1]; all CLL patient samples evaluated, read-out: concentrations that led to 50% inhibition of growth (IC50)) of 0.1 to 3 nM and an AUC ([1]; Pt1, ex vivo CLL patient cells) of 32.79. It also gave an AUC ([1]; Pt2, ex vivo CLL patient cells) of 181.6, an AUC ([1]; Pt3, ex vivo CLL patient cells) of 106.1 and an AUC ([1]; Pt4, ex vivo CLL patient cells) of 44.01. The AUC ([1]; Pt5, ex vivo CLL patient cells) was 139.6, the AUC ([1]; Pt6, ex vivo CLL patient cells) was 154.9 and the AUC ([1]; Pt7, ex vivo CLL patient cells) was 44.86. The AUC ([1]; Pt8, ex vivo CLL patient cells) was 75.03, the AUC ([1]; Pt9, ex vivo CLL patient cells) was 48.14 and the AUC [1, 2] was 57.87.
